In one data set the test system is mouse CD8T cells. In words: Detection of intracellular calcium ion in mouse tumor-infiltrating and lymph node lymphocytes after metformin administration. The settings on record: 5 mg/mL metformin free-water-drinking for 7 days. Format: in vivo, C57BL/6 mice. The method, then:
2×10^5 MO-5 (OVA-expressing B16 melanoma cell strain) was intradermally inoculated to C57BL/6 mice; 7 days after the transplantation, free-water-drinking oral administration of 5 mg/mL metformin was started. Seven days after the administration (14 days after the transplantation), the lymph node (LN) and the tumor tissue (Tumor) were excised, and the tumor-infiltrating lymphocytes and lymphocytes of the lymph node were collected. After the cells were washed with FCS(−)RPMI, the cells were stained using antimouse CD3 antibody BV510, antimouse CD8 antibody APC-Cy7, 1 Fluo4, and 1 Fura Red for 30 minutes at 37° C. After the staining, the cells were washed with FCS(−)RPMI warmed at 37° C., followed by measurement of the background of intracellular calcium ions by a flow cytometer for 30 seconds. After the background measurement, the cells were immediately stimulated by 100 ng/ml PMA and 5 ionomycin, and the increase in calcium ions in the mouse CD8T cells by stimulation was measured (FIG. 1).

Data set [1] concerns tumor-infiltrating CD8T cells. In words: Memory phenotype of antigen-specific tumor-infiltrating CD8T cells and glucose (2-NBDG) uptake in each cell fraction. Type of data set: in vivo, C57BL/6 mice. The method, then:
2×10^5 MO-5 was intradermally inoculated to C57BL/6 mice; 7 days after the transplantation, free-water-drinking oral administration of 5 mg/mL metformin was started. Seven days after the administration (14 days after the transplantation), the tumor tissue was excised, and tumor-infiltrating lymphocytes were separated. After the separation, the lymphocytes were washed with 0.1% BSA/PBS, and staining was performed with antimouse CD8 antibody APC-Cy7, antimouse CD62L antibody BV421, antimouse CD44 antibody PerCP, antimouse KLRG1 antibody APC, and 400 μM 2-NBDG (2-[N-(7-nitrobenz-2-oxa-1,3-diazol-4-yl) amino]-2-deoxy-d-glucose) for 30 minutes at 4° C. After washing with 0.1% BSA/PBS, frequency and memory phenotype (CD44, CD62L, KLRG1) of antigen-specific tumor-infiltrating CD8T cells, and deoxyglucose (2-NBDG) uptake in each cell fraction were analyzed using a flow cytometer (FIG. 2).

Data set [2] concerns peripheral blood CD8T cells of cancer patients. In words: Multifunctionality of human CD8T cells under a low glucose condition (intracellular cytokine staining, FACS). Type of data set: cell-based. The settings on record: for number of CD8T cells producing three cytokines (IL-2, TNFα, IFNγ): 10 μM metformin 6 hours pre-culture, PMA/ionomycin stimulation. How it is done:
FIG. 4: Analysis of multifunctionality of human CD8T-cells under a low glucose condition. Peripheral blood lymphocytes (PBMC) w/o 10 μM metformin were cultured for 6 hours. Subsequently, after washing, the cells were cultured for 12 hours at each glucose concentration. At the final 6 hours, the cells were cultured with PMA stimulation. After the culture, intracellular cytokine was stained with an antibody, followed by FACS analysis. It was confirmed that the multifunctionality of peripheral blood CD8T cells of cancer patients were recovered by being treated with metformin in advance, even in a low glucose environment, i.e., 1.0 mM.
Cryopreserved human PBMC obtained from cancer patients were thawed and cultured for 6 hours in the presence of FCS(−)RPMI 10 μM metformin. After the culture, the cells were separated and washed with FCS(−)Glc(−)RPMI. After the washing, the cells were subjected to stimulating culture for 6 hours by 50 ng/mL PMA and 2 ionomycin using RPMI containing 0.1, 1, 10 mM Glc in the presence of 1 monensin. The cells were separated and the cell-surface molecules were stained with antihuman CD8 antibody APC-Cy7, followed by a cell permeabilization treatment. The intracellular cytokines were stained with antihuman IL-2 antibody APC and antihuman TNFα antibody BV510, and […] IFNγ antibody FITC, followed by analysis using a flow cytometer (FIG. 4).

Data set [3] relates to glucose transporter (Glut1) in tumor-infiltrating CD8T cells. As to the kind of experiment: Glucose transporter (Glut1) expression in tumor-infiltrating CD8T cells, MethA tumor. Type of data set: in vivo, BALB/c. The settings on record: metformin 5 mg/mL free-water-drinking from Day 7; Day 10 and Day 13; with and without PMA stimulation. The method, then: Tumor (MethA) 2×10^6 was intradermally injected to 8-week old BALB/c, and metformin (5 mg/mL) was continuously given by free-water-drinking from Day 7. Three and 6 days after the treatment (Day 10 and Day 13), the tumor-infiltrating T cells (TIL) were separated and stained with anti-CD8 antibody, and anti-glucose transporter (Glut1) antibody. Further, after stimulating culture in the presence of PMA/Ionomycin/Monencin for 6 hours, the cells were stained with anti-CD8 antibody and anti-glucose transporter (Glut1) antibody, followed by analysis using a flow cytometer.

Data set [4] deals with Glut1-positive tumor-infiltrating CD8T cells. In words: Multifunctionality of CD8T cells expressing Glut1, MethA tumor. Format: in vivo, BALB/c. The method, then: Tumor (MethA) 2×10^6 was intradermally injected to 8-week old BALB/c, and metformin (5 mg/mL) was continuously given by free-water-drinking from Day 7. Three and 6 days after the treatment (Day 10 and Day 13), the tumor-infiltrating T cells (TIL) were separated. After stimulating culture in the presence of PMA/Ionomycin/Monencin for 6 hours, the cells were stained with anti-CD8 antibody, anti-glucose transporter (Glut1) antibody, and intracellular cytokines (IL-2/TNFα/IFNγ), followed by analysis using a flow cytometer. […] The proportion is increased by metformin administration. These facts indicate that, by confirming the Glut1 expression level in the tumor-infiltrating CD8T cells using a flow cytometer, it is possible to assume the immune status without performing a multifunctionality test. Further, by performing immunotherapy such as metformin administration, and confirming that the Glut1 expression level was increased in the CD8T cells by the therapy, it is possible to determine that the treatment had immune effects.

For data set [5], the system named is glucose transporter (Glut1) in CD8TIL. As to the kind of experiment: Change in Glut1 expression over time in CD8TIL, MethA tumor. Type of data set: in vivo, BALB/c. The settings on record: after 6-hour in-vitro culture; metformin 5 mg/mL from Day 7, 3 days of treatment. How it is done:
Syngeneic tumor MethA (2×10^6) was intradermally injected to 8-week old BALB/c, and administration of metformin (5 mg/mL) and N-acetylcysteine (NAC, 10 mg/mL) was started from Day 7. Three days after the treatment, the tumor-infiltrating T cells (TIL) were separated, and cultured for 0, 1, 3 and 6 hours at 37° C. Therefore, the cells were stained with CD3, CD8, and glucose transporter (Glut1) antibodies, followed by analysis using a flow cytometer (FIG. 8).

The test system is the same in data set [6]. In words: Glut1 expression versus changes in glucose concentration in CD8TIL, MethA tumor. Format: in vivo, BALB/c mice. The method, then:
Syngeneic tumor (MethA) 2×10^6 was intradermally injected to 8-week old BALB/c mice, and administration of metformin (5 mg/mL) was started from Day 7. Three days after the treatment, the tumor-infiltrating T cells (TIL) were separated. After culture in the presence of a culture solution having a glucose concentration of 0, 0.1, 1.2, 6.1, 12.5, or 25 mM at 37° C. for 0, 1, 3, 6 hours, the cells were stained with CD3, CD8, and glucose transporter (Glut1) antibodies, followed by analysis using a flow cytometer (FIG. 9).

In another data set the test system is human CD8T cells. As to the kind of experiment: Calcium concentration in peripheral blood CD8T cells of cancer patients before and after metformin administration. The settings on record: stage I, stage IIa and stage IV cancer patients; before vs after metformin. Format: in vivo. How it is done: In stage I, stage IIa, and stage IV cancer patients, changes in calcium concentration increase by PMA stimulation before and after metformin administration were measured. Human PBMC (human peripheral blood mononuclear cells) were collected before and after the metformin administration that was performed in accordance with the administration schedule shown in the figure, and subjected to stimulation with 100 ng/mL PMA and 5 ionomycin in the same manner as in Example 3, followed by measurement of calcium ion increase in human CD8T cells as a result of stimulation. Specifically, peripheral blood mononuclear cells (PBMC) were separated from peripheral blood by a gravity separation method, and 1×10^6 lymphocytes were incubated for 30 minutes at 37° C. in the presence of 1 μg/mL anti-human CD8 antibody and 1 μM Fluo4/FuraRed. The incubation was followed by washing with an AIM-V medium. After the washing, AIM-V was added and unstimulated (before stimulation) lymphocytes were collected by FACSCantoII for 20 minutes, thereby collecting baseline data. Thereafter, 100 ng/mL PMA and 2 μM ionomycin were added and stimulation was applied, followed by immediate collection by FACSCantoII, thereby obtaining data after stimulation. Consequently, waveforms according to the cytoplasmic calcium concentrations were detected.

The subject of data set [7] is OVA-expressing B16 melanoma cell strain MO5. The method, then: The four types of groups: an untreated group (C), and, 10 days after the tumor cell inoculation, sole use of aspirin, sole use of phenformin (Phen), combined use of aspirin and phenformin, each consisting of 5 mice, were prepared. Phenformin is a biguanide-based drug, like metformin. From Day 10 of the tumor cell inoculation, phenformin contained in a feed in an amount of 0.5% was given. Further, the feed was replaced by a normal feed every four days. Specifically, a phenformin-containing feed was given only on Day 10 to Day 14, and Day 18 to Day 22. A normal feed free of phenformin was given from Day 14 to Day 18, and Day 22 to Day 26. This administration method is based on the fact that there have been fatal cases by everyday administration of phenformin due to side effects.
In contrast, aspirin (600 μg/mL) was given by free water drinking, and the water drinking was continuously performed from Day 10.

Where [8] appears, read: 5 mg/mL metformin free-water-drinking for 7 days, MO-5 tumor.

“Also recorded” adds a separate entry of the source.

As for `CN(C)C(=N)N=C(N)N` [metformin], the “intracellular calcium concentration by PMA/ionomycin stimulation” value in the data set with mouse CD8T cells (CD8T cells of lymph node (LN), vs non-administration group) is “the degree of increase was greater”; in the data set with mouse CD8T cells (CD8T cells of tumor tissue (Tumor), MO-5 tumor), “greatly increased”. For the same compound, the “glycolysis system (2-NBDG uptake) of central memory” value in data set [1] (5 mg/mL metformin) is reported as “deactivates the glycolysis system”. Moreover, the “glycolysis system (2-NBDG uptake) of effector (eff) and effector memory (EM)” value in data set [1] (5 mg/mL metformin) is recorded as “activates the glycolysis system”. For the same compound, the “number and proportion of central memory” value in data set [1] (setting [8]) is “reduces”. Moreover, the “numbers and proportions of effector (eff) and effector memory (EM)” value in data set [1] (setting [8]) was “increased”. For the same compound, the results for the “number of CD8T cells producing three cytokines (IL-2, TNFα, IFNγ)” value in [2] (glucose concentration 0.1 mM) and in [2] (glucose concentration 1 mM) were “no difference” and “significantly increased”, respectively. Further, the “multifunctionality of peripheral blood CD8T cells of cancer patients” value in data set [2] (low glucose environment 1.0 mM, treated with 10 μM metformin in advance) is given as “recovered”. In addition, the “Glut1-positive group in tumor-infiltrating CD8T cells” value in data set [3] is reported as “conspicuous increase; also recorded: increased”. Also, the “proportion of Glut1-positive groups with multifunctionality” value in data set [4] (metformin 5 mg/mL free-water-drinking from Day 7, PMA/Ionomycin/Monencin 6 hours) was “increased”. Besides, the “Glut1-positive and multifunctional cell groups per tumor unit” value in data set [4] (metformin administration group) was “increased”. Further, the “Glut-1 expression in CD8TIL” value was “very high level” in data set [5] and “does not occur” in data set [6] (glucose concentration 0 mM). Further, in data set [6] (6-hour in-vitro culture, CD8TIL separated from metformin-administered mice), the “up-regulation of GLUT-1 in CD8TIL” value is given as “significant up-regulation”. In addition, the “Glut-1 expression, proportion of CD8TIL” value in [6] (glucose concentration of 0.1 mM, metformin-administered mice) was 14.3%. Moreover, the “calcium concentration by PMA stimulation in human CD8T cells” value in the data set on human CD8T cells is listed as “increase”.
Consider `[H]/N=C(/N)N/C(=N/[H])NCCc1ccccc1` [phenformin], for which the “side effects of everyday administration” value in [7] (everyday administration of phenformin) is “fatal cases”. Moreover, the water drinking behaviour result in [7] (mouse, in vivo) is recorded as “the mice stopped drinking water”. Also, in [7] (phenformin 0.5% in feed Day 10-14 and Day 18-22, aspirin 600 μg/mL free water drinking from Day 10), the “tumor growth inhibitory effects” value is given as “strong tumor growth inhibitory effects”.

The values above are taken from US20210223229A1, “IMMUNE FUNCTION INSPECTION METHOD, CANCER PATIENT CATEGORIZATION METHOD, CANCER TREATMENT EFFICACY PREDICTION METHOD, AGENT FOR INCREASING INTRACELLULAR CALCIUM ION CONCENTRATION, AGENT FOR INCREASING SELECTIVE FUNCTION OF EFFECTOR MEMORY (EM) AND EFFECTOR (EFF) IN TUMOR TISSUE, AND METHOD FOR …” (NATIONAL UNIVERSITY CORPORATION OKAYAMA UNIVERSITY, priority 2016, published 2021).
